Assay results taken from PMC8865417, “Receptor Interaction Profiles of 4-Alkoxy-3,5-Dimethoxy-Phenethylamines (Mescaline Derivatives) and Related Amphetamines” (Frontiers in Pharmacology, 2022).
Where two headings read alike, the source gives them in different places.

Assays:
h5-HT1A receptor = biological target: T1, h5-HT1A receptor (Homo sapiens, UniProt P08908); experiment: Radioligand binding at h5-HT1A receptor ([3H]8-OH-DPAT)
T1 construct: expressed in transfected cells; host or cells: HEK 293 cells (membrane preparations)
T1 sequence (P08908 1-422): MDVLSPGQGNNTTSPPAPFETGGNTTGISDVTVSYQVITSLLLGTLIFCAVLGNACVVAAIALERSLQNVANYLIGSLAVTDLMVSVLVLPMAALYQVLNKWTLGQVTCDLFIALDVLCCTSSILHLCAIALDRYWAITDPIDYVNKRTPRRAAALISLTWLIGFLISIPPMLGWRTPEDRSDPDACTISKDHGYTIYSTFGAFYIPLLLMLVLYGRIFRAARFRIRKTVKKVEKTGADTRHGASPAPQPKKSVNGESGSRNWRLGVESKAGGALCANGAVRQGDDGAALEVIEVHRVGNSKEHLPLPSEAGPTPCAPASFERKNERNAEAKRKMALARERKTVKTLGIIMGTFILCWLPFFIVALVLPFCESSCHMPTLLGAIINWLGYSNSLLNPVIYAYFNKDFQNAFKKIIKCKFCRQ

h5-HT2A receptor [1] = biological target: T2, h5-HT2A receptor (Homo sapiens, UniProt P28223); experiment: Radioligand binding at h5-HT2A receptor ([3H]ketanserin); details: for Ki: h5-HT2A Receptor binding Ki ± SD, [3H]ketanserin, mean ± SD
T2 construct: expressed in transfected cells; host or cells: HEK 293 cells (membrane preparations)

human TAAR1 = biological target: T3, human TAAR1 (Homo sapiens, UniProt Q96RJ0); experiment: Activity at the human TAAR1 (cAMP assay, HEK 293 cells); type: cell-based
T3 construct: expressed in transfected cells; host or cells: HEK 293 cells
T3 sequence (Q96RJ0 1-339): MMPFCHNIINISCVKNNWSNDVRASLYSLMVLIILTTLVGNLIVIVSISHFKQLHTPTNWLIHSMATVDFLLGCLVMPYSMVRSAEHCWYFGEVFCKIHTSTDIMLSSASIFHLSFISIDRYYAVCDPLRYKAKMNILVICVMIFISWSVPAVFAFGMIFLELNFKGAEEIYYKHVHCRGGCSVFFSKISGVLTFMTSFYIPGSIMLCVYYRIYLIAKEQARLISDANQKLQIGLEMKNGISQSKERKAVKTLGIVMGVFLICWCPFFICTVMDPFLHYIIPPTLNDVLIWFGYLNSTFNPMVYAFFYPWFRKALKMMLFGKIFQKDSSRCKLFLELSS
Protocol: Once 80–90% confluency was reached, the cells were collected by removing the medium, washing with PBS and then adding 5 ml of trypsin/EDTA solution for 5 min at 37°C. Next, 45 ml of medium was added and the entire mixture was transferred into a falcon tube. The tube was then centrifuged at room temperature for 3 min at 900 revolutions per minute (rpm). Next, the supernatant was removed in order to resuspend the remaining cell pellet in fresh medium to 5 × 10^5 cells/ml. Hundred microliter of the cells was transferred into a 96-well plate ([…]; BIOCOAT 6640, Becton Dickinson, Allschwil, Switzerland) and incubated for 20 h at 37°C.
For the cAMP assay, the aspirated medium was replaced with 50 μl PBS without Ca^2+ and Mg^2+ ions. Using snap inversion, the PBS was extracted and the plate was gently tapped against tissue. Next, 90 μl of Krebs-Ringer Bicarbonate buffer (KRB, Sigma-Aldrich) containing 1 mM IBMX was added and incubated for 60 min at 37°C and 5% CO2/95% air. Each test compound was examined in duplicate in a concentration range between 300 pM and 30 μM. A standard curve with a range of cAMP concentrations (0.13 nM–10 μM) was created for each 96-well plate. Each experiment was accompanied with a reference plate that included RO5256390, β-phenylethylamine and p-tyramine. The cells were exposed to either 30 μl of compound solution, 30 μl of β-phenylethylamine (as maximal response), or a basal control in PBS (containing 1 mM IBMX) for 40 min at 37°C. Next, under forceful shaking using black lids, the cells were exposed to 50 μl of 3× detection mix solution (composed of Ru-cAMP Alexa700 anti-cAMP antibody and lysis buffer) for 120 min at room temperature. Using the NanoScan reader (Innovate Optische Messtechnik, Berlin, Germany; 456 nm excitation wavelength; 630 and 700 nm emission wavelengths), the fluorescence was examined and the FRET signal was determined using the following equation; FRET (700 nm)- P × FRET (630 nm), where P = Ru (700 nm)/Ru (630 nm).

rat TAAR1 = biological target: T4, rat TAAR1 (Rattus norvegicus, UniProt Q923Y9); experiment: Radioligand binding at rat TAAR1 ([3H]RO5166017)
T4 construct: expressed in transfected cells; host or cells: HEK 293 cells (membrane preparations)

mouse TAAR1 = biological target: T5, mouse TAAR1 (Mus musculus, UniProt Q923Y8); experiment: Radioligand binding at mouse TAAR1 ([3H]RO5166017)
T5 construct: expressed in transfected cells; host or cells: HEK 293 cells (membrane preparations)

hα1A adrenergic receptor = biological target: T6, hα1A adrenergic receptor (Homo sapiens, UniProt P35348); experiment: Radioligand binding at hα1A adrenergic receptor ([3H]prazosin); details: mean ± SD
T6 construct: expressed in transfected cells; host or cells: Chinese hamster ovary cells (membrane preparations)
T6 sequence (P35348 1-466): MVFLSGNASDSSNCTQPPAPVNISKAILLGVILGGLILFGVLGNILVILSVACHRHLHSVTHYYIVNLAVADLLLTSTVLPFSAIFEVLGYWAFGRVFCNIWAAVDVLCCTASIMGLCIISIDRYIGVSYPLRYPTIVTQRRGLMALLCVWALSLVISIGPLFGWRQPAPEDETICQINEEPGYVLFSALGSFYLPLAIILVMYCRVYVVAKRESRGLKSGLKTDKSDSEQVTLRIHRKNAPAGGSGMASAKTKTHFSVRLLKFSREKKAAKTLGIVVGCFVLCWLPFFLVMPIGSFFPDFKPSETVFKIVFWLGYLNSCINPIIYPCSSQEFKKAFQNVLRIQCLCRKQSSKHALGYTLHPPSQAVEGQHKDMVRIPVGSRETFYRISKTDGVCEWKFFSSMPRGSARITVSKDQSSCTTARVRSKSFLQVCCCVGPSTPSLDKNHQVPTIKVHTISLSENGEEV

hα2A adrenergic receptor = biological target: T7, hα2A adrenergic receptor (Homo sapiens, UniProt P08913); experiment: Radioligand binding at hα2A adrenergic receptor ([3H]rauwolscine)
T7 construct: expressed in transfected cells; host or cells: Chinese hamster lung cells (membrane preparations)
T7 sequence (P08913 1-465): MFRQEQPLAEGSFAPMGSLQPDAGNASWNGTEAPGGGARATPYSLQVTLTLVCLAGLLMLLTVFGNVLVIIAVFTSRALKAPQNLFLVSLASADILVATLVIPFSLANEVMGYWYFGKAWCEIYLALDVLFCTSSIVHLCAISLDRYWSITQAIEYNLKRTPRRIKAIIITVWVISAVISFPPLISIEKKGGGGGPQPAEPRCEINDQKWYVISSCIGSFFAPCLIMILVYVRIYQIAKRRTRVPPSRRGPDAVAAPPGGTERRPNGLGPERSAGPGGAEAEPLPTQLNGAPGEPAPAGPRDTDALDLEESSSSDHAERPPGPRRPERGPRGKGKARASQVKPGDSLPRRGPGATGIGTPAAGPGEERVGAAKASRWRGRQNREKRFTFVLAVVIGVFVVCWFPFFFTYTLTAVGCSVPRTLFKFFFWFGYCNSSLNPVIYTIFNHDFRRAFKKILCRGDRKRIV

[2] = biological target: T8, dopaminergic hD2 receptor (Homo sapiens, UniProt P14416); experiment: Radioligand binding at dopaminergic hD2 receptor ([3H]spiperone)
T8 construct: expressed in transfected cells; host or cells: HEK 293 cells (membrane preparations)

hNET = biological target: T9, hNET (Homo sapiens, UniProt P23975); experiment: Radioligand binding at hNET (N-methyl-[3H]nisoxetine)
T9 construct: expressed in transfected cells; host or cells: HEK 293 cells (membrane preparations)

hDAT = biological target: T10, hDAT (Homo sapiens, UniProt Q01959); experiment: Radioligand binding at hDAT ([3H]WIN35,428)
T10 construct: expressed in transfected cells; host or cells: HEK 293 cells (membrane preparations)

hSERT = biological target: T11, hSERT (Homo sapiens, UniProt P31645); experiment: Radioligand binding at hSERT ([3H]citalopram)
T11 construct: expressed in transfected cells; host or cells: HEK 293 cells (membrane preparations)

humans = details: ref Shulgin and Shulgin 1991, cited from earlier work; for Duration of action: humans; for Duration of action / Human oral dose: Shulgin and Shulgin 1997, Trachsel et al., 2013; for Human oral dose: psychedelic dose in humans
human 5-HT2A receptor [3] = biological target: T12, human 5-HT2A receptor (Homo sapiens, UniProt P28223); details: for Emax: NIH3T3, read-out: h5-HT2A Activation efficacy max ± SD, relative to 5-HT = 100%
human 5-HT2B receptor = human 5-HT2B receptor (Homo sapiens, UniProt P41595); details: for EC50: h5-HT2B Activation potency EC50 ± SD, HEK 293 cells, calcium FLIPR, mean ± SD
h5-HT2C receptor = biological target: T13, h5-HT2C receptor (Homo sapiens, UniProt P28335); experiment: biochemical; type: binding; details: [3H]mesulergine; mean ± SD; read-out: h5-HT2C Receptor binding Ki ± SD
T13 construct: expressed in transfected cells; host or cells: HEK 293 cells (membrane preparations)
T13 sequence (P28335 33-458): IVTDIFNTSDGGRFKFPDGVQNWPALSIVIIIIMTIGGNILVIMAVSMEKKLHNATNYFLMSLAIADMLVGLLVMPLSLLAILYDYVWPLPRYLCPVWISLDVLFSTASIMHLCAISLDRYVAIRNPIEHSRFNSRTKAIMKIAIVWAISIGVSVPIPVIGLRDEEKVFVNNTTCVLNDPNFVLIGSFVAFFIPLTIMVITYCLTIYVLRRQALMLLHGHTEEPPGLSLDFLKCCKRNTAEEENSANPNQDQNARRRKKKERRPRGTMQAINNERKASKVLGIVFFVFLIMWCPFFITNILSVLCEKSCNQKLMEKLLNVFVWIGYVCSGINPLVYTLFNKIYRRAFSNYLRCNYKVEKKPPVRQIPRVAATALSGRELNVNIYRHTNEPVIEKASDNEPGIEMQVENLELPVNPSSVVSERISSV

head twitch response = test system: head twitch response; parameters: method as in Halberstadt et al. (2019); details: ref Halberstadt et al. (2019); cited from earlier work
h5-HT2A receptor [4] = biological target: T2, h5-HT2A receptor; details: read-out: h5-HT2A Receptor binding Ki ± SD; cited from earlier work
human 5-HT2A receptor [5] = biological target: T12, human 5-HT2A receptor; parameters: expressed in transfected cells; host or cells: NIH-3T3 cells (mouse embryonic fibroblasts); details: read-out: h5-HT2A Activation potency EC50 ± SD; mescaline; ref Rickli et al. (2016); cited from earlier work

T11 sequence (P31645 whole entry): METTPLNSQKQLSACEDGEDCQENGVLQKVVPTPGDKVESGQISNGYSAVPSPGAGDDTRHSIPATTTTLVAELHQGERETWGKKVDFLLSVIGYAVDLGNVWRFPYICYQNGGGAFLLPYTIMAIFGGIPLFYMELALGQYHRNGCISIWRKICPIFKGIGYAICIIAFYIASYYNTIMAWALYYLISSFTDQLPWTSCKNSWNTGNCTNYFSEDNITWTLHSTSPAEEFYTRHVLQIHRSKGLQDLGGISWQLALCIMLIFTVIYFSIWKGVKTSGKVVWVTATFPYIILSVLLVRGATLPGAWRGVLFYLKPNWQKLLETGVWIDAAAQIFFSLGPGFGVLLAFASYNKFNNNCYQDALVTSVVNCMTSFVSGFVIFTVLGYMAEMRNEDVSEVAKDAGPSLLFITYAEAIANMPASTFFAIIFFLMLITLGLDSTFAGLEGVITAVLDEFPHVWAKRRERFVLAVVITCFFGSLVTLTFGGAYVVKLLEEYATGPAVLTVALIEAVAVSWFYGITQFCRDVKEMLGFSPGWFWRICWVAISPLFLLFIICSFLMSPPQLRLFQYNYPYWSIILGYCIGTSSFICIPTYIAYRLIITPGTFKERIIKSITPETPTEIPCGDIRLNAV
T8 sequence (P14416 whole entry): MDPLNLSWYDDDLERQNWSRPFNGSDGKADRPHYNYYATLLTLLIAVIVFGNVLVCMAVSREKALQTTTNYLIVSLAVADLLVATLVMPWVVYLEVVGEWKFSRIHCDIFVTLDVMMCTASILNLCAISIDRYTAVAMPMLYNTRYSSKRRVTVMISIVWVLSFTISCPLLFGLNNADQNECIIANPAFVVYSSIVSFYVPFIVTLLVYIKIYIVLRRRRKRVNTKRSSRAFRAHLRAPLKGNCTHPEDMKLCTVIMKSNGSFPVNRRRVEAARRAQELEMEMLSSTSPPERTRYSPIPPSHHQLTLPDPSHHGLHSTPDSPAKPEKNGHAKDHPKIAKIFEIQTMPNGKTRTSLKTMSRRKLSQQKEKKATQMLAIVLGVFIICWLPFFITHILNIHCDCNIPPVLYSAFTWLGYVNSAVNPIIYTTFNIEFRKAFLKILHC
T2 sequence (P28223 whole entry): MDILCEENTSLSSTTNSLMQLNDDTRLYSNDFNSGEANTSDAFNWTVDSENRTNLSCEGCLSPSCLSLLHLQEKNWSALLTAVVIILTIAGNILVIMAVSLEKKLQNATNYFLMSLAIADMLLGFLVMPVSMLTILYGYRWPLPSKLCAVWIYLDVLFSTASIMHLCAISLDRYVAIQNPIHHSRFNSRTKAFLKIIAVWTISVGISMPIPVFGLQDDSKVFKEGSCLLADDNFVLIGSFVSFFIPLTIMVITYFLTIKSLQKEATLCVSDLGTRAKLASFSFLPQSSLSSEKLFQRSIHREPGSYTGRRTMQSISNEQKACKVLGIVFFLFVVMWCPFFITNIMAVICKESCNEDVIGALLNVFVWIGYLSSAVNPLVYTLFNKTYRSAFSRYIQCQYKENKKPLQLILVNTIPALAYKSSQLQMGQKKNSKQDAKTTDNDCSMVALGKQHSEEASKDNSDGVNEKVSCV
T12 sequence (P28223 whole entry): as above
T5 sequence (Q923Y8 whole entry): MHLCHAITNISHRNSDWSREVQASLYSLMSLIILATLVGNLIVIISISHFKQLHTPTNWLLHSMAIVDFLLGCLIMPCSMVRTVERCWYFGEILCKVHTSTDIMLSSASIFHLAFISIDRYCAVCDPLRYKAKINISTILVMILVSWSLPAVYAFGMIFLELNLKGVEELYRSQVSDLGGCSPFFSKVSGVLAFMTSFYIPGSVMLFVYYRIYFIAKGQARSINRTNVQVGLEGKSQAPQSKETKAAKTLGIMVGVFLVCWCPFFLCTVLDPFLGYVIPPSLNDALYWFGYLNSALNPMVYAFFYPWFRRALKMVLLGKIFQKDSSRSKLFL
Chain of human 5-HT2B receptor (P41595 whole entry): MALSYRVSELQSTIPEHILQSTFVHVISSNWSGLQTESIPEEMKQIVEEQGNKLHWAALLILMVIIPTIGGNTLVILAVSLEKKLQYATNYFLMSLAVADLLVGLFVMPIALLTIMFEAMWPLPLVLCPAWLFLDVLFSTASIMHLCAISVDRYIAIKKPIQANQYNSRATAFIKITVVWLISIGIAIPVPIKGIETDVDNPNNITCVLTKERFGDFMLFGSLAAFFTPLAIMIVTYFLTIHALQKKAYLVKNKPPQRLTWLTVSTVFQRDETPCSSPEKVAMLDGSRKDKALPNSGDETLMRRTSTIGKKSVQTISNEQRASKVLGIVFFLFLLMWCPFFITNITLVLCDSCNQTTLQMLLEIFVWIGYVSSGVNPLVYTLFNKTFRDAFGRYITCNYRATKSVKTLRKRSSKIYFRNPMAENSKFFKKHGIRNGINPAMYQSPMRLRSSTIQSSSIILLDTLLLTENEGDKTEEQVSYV
T9 sequence (P23975 whole entry): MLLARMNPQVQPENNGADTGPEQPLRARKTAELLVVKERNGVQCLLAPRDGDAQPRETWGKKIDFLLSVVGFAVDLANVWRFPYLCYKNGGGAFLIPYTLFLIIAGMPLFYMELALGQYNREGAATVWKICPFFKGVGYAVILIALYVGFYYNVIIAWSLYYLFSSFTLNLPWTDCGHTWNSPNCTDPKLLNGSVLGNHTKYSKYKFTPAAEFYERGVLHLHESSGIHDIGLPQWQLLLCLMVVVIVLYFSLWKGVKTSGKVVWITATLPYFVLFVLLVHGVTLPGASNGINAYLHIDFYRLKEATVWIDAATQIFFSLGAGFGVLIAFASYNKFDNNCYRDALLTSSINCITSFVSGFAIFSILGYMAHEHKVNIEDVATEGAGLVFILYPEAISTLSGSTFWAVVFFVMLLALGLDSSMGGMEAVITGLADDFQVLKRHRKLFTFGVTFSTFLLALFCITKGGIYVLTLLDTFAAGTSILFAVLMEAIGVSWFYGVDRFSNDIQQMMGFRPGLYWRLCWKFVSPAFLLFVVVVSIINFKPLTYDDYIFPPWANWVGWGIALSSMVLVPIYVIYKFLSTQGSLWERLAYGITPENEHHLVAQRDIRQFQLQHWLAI
T4 sequence (Q923Y9 whole entry): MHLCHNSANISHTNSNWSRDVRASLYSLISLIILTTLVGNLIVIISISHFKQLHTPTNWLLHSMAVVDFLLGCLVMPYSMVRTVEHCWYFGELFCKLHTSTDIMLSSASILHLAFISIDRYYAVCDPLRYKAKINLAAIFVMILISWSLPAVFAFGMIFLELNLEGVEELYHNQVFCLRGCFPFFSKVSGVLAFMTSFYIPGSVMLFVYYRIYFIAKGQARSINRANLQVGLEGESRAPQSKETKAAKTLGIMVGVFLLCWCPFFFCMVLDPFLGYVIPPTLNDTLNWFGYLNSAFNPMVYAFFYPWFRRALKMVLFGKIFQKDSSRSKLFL
T10 sequence (Q01959 whole entry): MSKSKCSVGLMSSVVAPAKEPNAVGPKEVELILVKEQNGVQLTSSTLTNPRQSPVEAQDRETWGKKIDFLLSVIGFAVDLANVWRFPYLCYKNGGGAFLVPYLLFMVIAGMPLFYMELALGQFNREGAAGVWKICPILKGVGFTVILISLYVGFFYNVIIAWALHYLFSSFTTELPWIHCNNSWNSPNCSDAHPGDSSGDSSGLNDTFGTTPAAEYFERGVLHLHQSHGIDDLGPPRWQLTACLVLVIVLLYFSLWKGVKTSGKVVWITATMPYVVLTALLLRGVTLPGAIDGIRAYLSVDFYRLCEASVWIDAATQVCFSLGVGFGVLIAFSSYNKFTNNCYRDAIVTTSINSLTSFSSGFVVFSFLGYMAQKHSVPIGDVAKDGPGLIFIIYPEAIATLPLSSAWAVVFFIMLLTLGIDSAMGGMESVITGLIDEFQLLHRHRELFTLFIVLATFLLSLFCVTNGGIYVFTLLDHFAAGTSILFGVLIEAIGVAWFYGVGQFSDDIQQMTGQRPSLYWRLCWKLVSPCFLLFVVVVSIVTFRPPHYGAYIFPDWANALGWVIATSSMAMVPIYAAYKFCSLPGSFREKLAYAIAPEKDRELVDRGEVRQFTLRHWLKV

Structure (SMILES) | Ki (h5-HT1A receptor) | Ki (h5-HT2A receptor [1]) | Ki (rat TAAR1) | Ki (mouse TAAR1) | Ki (hα1A adrenergic receptor) | Ki (hα2A adrenergic receptor) | Ki [2] | Ki (hNET) | Ki (hDAT) | Ki (hSERT) | Psychedelic / active dose in humans (humans) | EC50 (human 5-HT2A receptor [3]) | Emax (human 5-HT2A receptor [3]) | EC50 (human 5-HT2B receptor) | Ki (h5-HT2C receptor) | further results
COc1cc(CC(C)N)cc(OC)c1OC (stereo not drawn) [compound 6, 3,4,5-trimethoxyamphetamine] | > 5.6 µM | > 12 µM | 3.2 µM | 1.8 µM | > 8.7 µM | 4.03 µM | > 6.3 µM | > 9.7 µM | > 8.5 µM | > 7.5 µM | 100 to 200 mg | 1.7 ± 0.4 µM | 40 to 73% | > 10 µM |  | EC50 (human TAAR1): > 10 µM; Duration of action (humans): 6 to 8 h; Human oral dose (humans; listed as TMA): 100 to 250 mg
CCOc1c(OC)cc(CC(C)N)cc1OC (stereo not drawn) [compound 21, 3,5-dimethoxy-4-ethoxyamphetamine] | > 5.6 µM | 3.7 µM | > 4.7 µM | > 4.2 µM | > 8.7 µM | > 5.1 µM | > 6.3 µM | > 9.7 µM | > 8.5 µM | > 7.5 µM |  | 0.16 ± 0.05 µM | 86 to 102% | 0.095 ± 0.13 µM | 4.9 µM | Selectivity 5-HT2A vs. 5-HT2C (h5-HT2A receptor [1]; binding ratio): 1.3; Head twitch response (head twitch response): induced a head twitch response with almost identical potency; Emax (human 5-HT2B receptor; HEK293, read-out: h5-HT2B Activation efficacy max ± SD, relative to 5-HT = 100%): 18 to 29%
COc1cc(CCN)c(OC)cc1Br [2C-B] |  |  |  |  |  |  |  |  |  |  |  |  |  |  |  | Ki (h5-HT2A receptor [4]): 0.0069 ± 0.0018 µM
COc1cc(CCN)cc(OC)c1OC [compound 5, 3,4,5-trimethoxyphenethylamine] | 6.7 µM | 9.4 µM | 3 µM | > 4.2 µM | > 8.7 µM | 2 µM | > 6.3 µM | > 9.7 µM | > 8.5 µM | > 7.5 µM | 180 to 360 mg |  |  | > 10 µM | 9.9 µM | Duration of action (humans; listed as mescaline): 8 to 12 h; Human oral dose (humans): 180 to 360 mg; EC50 (human 5-HT2A receptor [5]): 10 µM
